Test results taken from US7541346B2, “Pancratistatin cyclic phosphate prodrugs and phenpanstatin cyclic phosphate prodrugs” (Arizona Board of Regents, a body corporate of the State of …, priority 2003, dated 2009).
≈ marks a conversion by molar mass, not a printed value. Like-named read-outs stand apart in the source and are kept apart here.

Key:
MCF-7 = experiment: Human cancer cell line inhibitory activity, Breast MCF-7; format: cell-based; settings: for GI50: Homo sapiens, MCF7, read-out: GI50 Breast MCF-7
SF268 = experiment: Human cancer cell line inhibitory activity, CNS SF268; format: cell-based; settings: for GI50: Homo sapiens, SF-268, read-out: GI50 CNS SF268
[1] = test system: Encephalitozoon intestinalis; settings: in vitro; cited from earlier work
DU-145 = experiment: Human cancer cell line inhibitory activity, Prostate DU-145; format: cell-based; settings: for GI50: Homo sapiens, DU-145, read-out: GI50 Prostate DU-145
KM20L2 = experiment: Human cancer cell line inhibitory activity, Colon KM20L2; format: cell-based; settings: for GI50: Homo sapiens, KM-20L2, read-out: GI50 Colon KM20L2
BXPC-3 = experiment: Human cancer cell line inhibitory activity, Pancreas-a BXPC-3; format: cell-based; settings: for GI50: Homo sapiens, BXPC-3, read-out: GI50 Pancreas-a BXPC-3
NCI-H460 = experiment: Human cancer cell line inhibitory activity, Lung-NSC NCI-H460; format: cell-based; settings: for GI50: Homo sapiens, NCI-H460, read-out: GI50 Lung-NSC NCI-H460
[2] = freeze dried solid
Description: Sodium pancratistatin 3,4-cyclic phosphate (5a, 0.0165 g, 0.04 mmol) was dissolved in water (1 ml) and eluted through a column containing Amberlite IR 120 (H+) resin.

Compound | GI50 Breast MCF-7 (MCF-7) | GI50 CNS SF268 (SF268) | GI50 Prostate DU-145 (DU-145) | GI50 Colon KM20L2 (KM20L2) | GI50 Pancreas-a BXPC-3 (BXPC-3) | GI50 Lung-NSC NCI-H460 (NCI-H460) | other results
O=C1N[C@H]2[C@H](O)[C@H](O)[C@@H](O)[C@H](O)[C@@H]2c2cc3c(c(O)c21)OCO3 [Compound 1a, (+)-pancratistatin, reference compound] | – | – | – | – | – | – | GI50 (MCF-7): 0.023 µg/mL (≈ 0.0707 µM); GI50 (SF268): 0.014 µg/mL (≈ 0.043 µM); activity against microspirochesis [1]: remarkable activity; GI50 (DU-145): 0.015 µg/mL (≈ 0.0461 µM); GI50 (KM20L2): 0.025 µg/mL (≈ 0.0769 µM); GI50 (BXPC-3): 0.02 µg/mL (≈ 0.0615 µM); GI50 (NCI-H460): 0.032 µg/mL (≈ 0.0984 µM)
O=C1N[C@H]2[C@H](O)[C@H](O)[C@@H](O)[C@H](O)[C@@H]2c2cc3c(c(OP(=O)([O-])[O-])c21)OCO3.[Na+].[Na+] [Compound 1b, sodium pancratistatin 7-O-phosphate, reference compound] | 0.20 µg/mL | 0.079 µg/mL | 0.026 µg/mL | 0.17 µg/mL | 0.20 µg/mL | 0.19 µg/mL | –
O=C1N[C@@H]2C(=C[C@H](O)[C@@H](O)[C@H]2O)c2cc3c(c(O)c21)OCO3 [Compound 2a, narciclasine, reference compound] | 0.0032 µg/mL (≈ 0.0104 µM) | 0.0031 µg/mL (≈ 0.0101 µM) | 0.0032 µg/mL (≈ 0.0104 µM) | 0.0032 µg/mL (≈ 0.0104 µM) | 0.0035 µg/mL (≈ 0.0114 µM) | 0.0084 µg/mL (≈ 0.0273 µM) | –
O=C(O[C@H]1[C@H](O)[C@@H](O)[C@@H](O)[C@@H]2NC(=O)c3c(cc4c(c3O)OCO4)[C@H]21)c1ccccc1 [Compound 3a, phenpanstatin] | – | – | – | – | – | – | GI50 (MCF-7): 0.00031 µg/mL (≈ 0.000722 µM); GI50 (SF268): 0.00055 µg/mL (≈ 0.00128 µM); GI50 (DU-145): 0.00021 µg/mL (≈ 0.000489 µM); GI50 (KM20L2): 0.00037 µg/mL (≈ 0.000862 µM); GI50 (BXPC-3): 0.0019 µg/mL (≈ 0.00442 µM); GI50 (NCI-H460): 0.0001 µg/mL (≈ 0.000233 µM)
O=C(O[C@H]1[C@H](O)[C@H]2OP(=O)([O-])O[C@H]2[C@@H]2NC(=O)c3c(cc4c(c3O)OCO4)[C@H]21)c1ccccc1.[Na+] [Compound 3b, Sodium Phenpanstatin 3,4,O-cyclic Phosphate] | – | – | – | – | – | – | GI50 Breast MCF-7 (MCF-7; human cancer cell line MCF-7): 0.041 µg/mL; GI50 CNS SF268 (SF268; human cancer cell line SF268): 0.17 µg/mL; GI50 Prostate DU-145 (DU-145; human cancer cell line DU-145): 0.13 µg/mL; GI50 Colon KM20L2 (KM20L2; human cancer cell line KM20L2): 0.13 µg/mL; GI50 Pancreas-a BXPC-3 (BXPC-3; human cancer cell line BXPC-3): 0.25 µg/mL; GI50 Lung-NSC NCI-H460 (NCI-H460; human cancer cell line NCI-H460): 0.029 µg/mL
O=C1N[C@H]2[C@H](OP(=O)([O-])[O-])[C@H](O)[C@@H](O)[C@H](O)[C@@H]2c2cc3c(c(O)c21)OCO3.[Na+].[Na+] [Compound 4a, Sodium Pancratistatin 4-O-phosphate] | 0.18 µg/mL | 0.12 µg/mL | 0.94 µg/mL | 0.24 µg/mL | 0.18 µg/mL | 0.38 µg/mL | –
O=C1N[C@H]2[C@H](OP(=O)(O)O)[C@H](O)[C@@H](O)[C@H](O)[C@@H]2c2cc3c(c(O)c21)OCO3 [Compound 4b, Pancratistatin 4-O-phosphoric Acid] | 0.43 µg/mL (≈ 1.06 µM) | 0.35 µg/mL (≈ 0.864 µM) | 0.20 µg/mL (≈ 0.494 µM) | 0.33 µg/mL (≈ 0.814 µM) | 0.36 µg/mL (≈ 0.888 µM) | 0.42 µg/mL (≈ 1.04 µM) | stability of the material [2]: unstable and decomposed over several days
O=C1N[C@H]2[C@H](OP(=O)([O-])O)[C@H](O)[C@@H](O)[C@H](O)[C@@H]2c2cc3c(c(O)c21)OCO3.[Li+] [Compound 4c, Lithium Pancratistatin 4-O-phosphate] | 0.39 µg/mL | 0.28 µg/mL | 0.20 µg/mL | 0.25 µg/mL | 0.30 µg/mL | 0.35 µg/mL | –
O=C1N[C@H]2[C@H](OP(=O)([O-])[O-])[C@H](O)[C@@H](O)[C@H](O)[C@@H]2c2cc3c(c(O)c21)OCO3.[K+].[K+] [Compound 4d, Potassium Pancratistatin 4-O-phosphate] | 0.46 µg/mL | 0.39 µg/mL | 0.22 µg/mL | 0.30 µg/mL | 0.45 µg/mL | 0.40 µg/mL | –
O=C1N[C@H]2[C@H](OP(=O)([O-])[O-])[C@H](O)[C@@H](O)[C@H](O)[C@@H]2c2cc3c(c(O)c21)OCO3.[Mg+2] [Compound 4e, Magnesium Pancratistatin 4-O-Phosphate] | 0.44 µg/mL | 0.36 µg/mL | 0.22 µg/mL | 0.36 µg/mL | 0.40 µg/mL | 0.42 µg/mL | –
O=C1N[C@H]2[C@H](OP(=O)([O-])[O-])[C@H](O)[C@@H](O)[C@H](O)[C@@H]2c2cc3c(c(O)c21)OCO3.[Ca+2] [Compound 4f, Calcium Pancratistatin 4-O-Phosphate] | 0.36 µg/mL | 0.26 µg/mL | 0.12 µg/mL | 0.23 µg/mL | 0.25 µg/mL | 0.27 µg/mL | –
O=C1N[C@H]2[C@H](OP(=O)([O-])[O-])[C@H](O)[C@@H](O)[C@H](O)[C@@H]2c2cc3c(c(O)c21)OCO3.[Zn+2] [Compound 4g, Zinc Pancratistatin 4-O-Phosphate] | 0.47 µg/mL | 0.38 µg/mL | 0.17 µg/mL | 0.30 µg/mL | 0.27 µg/mL | 0.42 µg/mL | –
C1CNCCN1.O=C1N[C@H]2[C@H](OP(=O)(O)O)[C@H](O)[C@@H](O)[C@H](O)[C@@H]2c2cc3c(c(O)c21)OCO3 [Compound 4h, Piperazinium Pancratistatin 4-O-Phosphate] | 0.38 µg/mL | 0.27 µg/mL | 0.21 µg/mL | 0.24 µg/mL | 0.31 µg/mL | 0.35 µg/mL | –
C1COCCN1.O=C1N[C@H]2[C@H](OP(=O)(O)O)[C@H](O)[C@@H](O)[C@H](O)[C@@H]2c2cc3c(c(O)c21)OCO3 [Compound 4i, Morpholinium Pancratistatin 4-O-Phosphate] | 0.40 µg/mL | 0.38 µg/mL | 0.18 µg/mL | 0.37 µg/mL | 0.29 µg/mL | 0.46 µg/mL | –
O=C1N[C@H]2[C@H](OP(=O)(O)O)[C@H](O)[C@@H](O)[C@H](O)[C@@H]2c2cc3c(c(O)c21)OCO3.c1c[nH]cn1 [Compound 4j, Imidazolium Pancratistatin 4-O-Phosphate] | 0.33 µg/mL | 0.21 µg/mL | 0.13 µg/mL | 0.13 µg/mL | 0.25 µg/mL | 0.25 µg/mL | –
C=C[C@H]1CN2CC[C@H]1C[C@H]2[C@H](O)c1ccnc2ccc(OC)cc12.O=C1N[C@H]2[C@H](OP(=O)(O)O)[C@H](O)[C@@H](O)[C@H](O)[C@@H]2c2cc3c(c(O)c21)OCO3 [Compound 4k, Quinium Pancratistatin 4-O-Phosphate] | 0.35 µg/mL | 0.28 µg/mL | 0.15 µg/mL | 0.22 µg/mL | 0.23 µg/mL | 0.31 µg/mL | –
C=C[C@H]1CN2CC[C@H]1C[C@@H]2[C@@H](O)c1ccnc2ccc(OC)cc12.O=C1N[C@H]2[C@H](OP(=O)(O)O)[C@H](O)[C@@H](O)[C@H](O)[C@@H]2c2cc3c(c(O)c21)OCO3 [Compound 4l, Quinidium Pancratistatin 4-O-Phosphate] | 0.38 µg/mL | 0.27 µg/mL | 0.20 µg/mL | 0.23 µg/mL | 0.34 µg/mL | 0.36 µg/mL | –
O=C1N[C@H]2[C@@H]3OP(=O)([O-])O[C@@H]3[C@@H](O)[C@H](O)[C@@H]2c2cc3c(c(O)c21)OCO3.[Na+] [Compound 5a, Sodium Pancratistatin 3,4-cyclic Phosphate] | 2.9 µg/mL | 2.9 µg/mL | 2.3 µg/mL | 3.7 µg/mL | 3.3 µg/mL | 3.8 µg/mL | –
